The record followed here is publication PMC8286840, “Identifying SARS-CoV-2 antiviral compounds by screening for small molecule inhibitors of Nsp3 papain-like protease” (Biochemical Journal, 2021).

Test [1] concerns the target T1, SARS-CoV-2 PLpro (nsp3 1564–1878) (Severe acute respiratory syndrome coronavirus 2, UniProt P0DTD1). The test is described as follows: biochemical. More on the design: FRET-quenched peptide (Pro3) cleavage by PLpro, 10 min pre-incubation, slope over 20 min, normalised to no-compound control. The conditions noted are these: low concentration screen, read-out: % of control remaining.

The target in test [2] is T1, SARS-CoV-2 PLpro (nsp3 1564–1878). The test is described as follows: biochemical. More on the design: FRET-quenched peptide (Pro3) cleavage by PLpro, 10 min pre-incubation, slope over 20 min, normalised to no-compound control. The conditions noted are these: high concentration screen, read-out: % of control remaining.

SMILES strings stand for the structures. Counter-ions that a name gives are not always drawn. Like-named read-outs stand apart in the source and are kept apart here.

For the molecule `C[C@]12CC[C@@H]3c4ccc(O)cc4CC[C@H]3[C@@H]1C[C@@H](O)[C@@H]2O` [Estriol], the remaining activity at 1.25 µM in test [1] (Well no.=2036) was 105%; in test [1] (Well no.=6489), 104%. Further, the results for the remaining activity at 3.75 µM in test [2] (Well no.=2036) and in test [2] (Well no.=6489) were 104% and 108%, respectively.
With `COc1ccc(C2=N[C@@H](c3ccc(Cl)cc3)[C@@H](c3ccc(Cl)cc3)N2C(=O)N2CCNC(=O)C2)c(OC(C)C)c1` [Nutlin (3)], the remaining activity at 1.25 µM stood at 98.9% in test [1] (Well no.=6356) and 103% in test [1] (Well no.=7836). Further, the results for the remaining activity at 3.75 µM in test [2] (Well no.=6356) and in test [2] (Well no.=7836) were 101% and 99.3%, respectively.
Consider `COc1ccc2cc1Oc1ccc(cc1)C[C@H]1c3cc(c(OC)cc3CCN1C)Oc1c(OC)c(OC)c(OC)c3c1[C@H](C2)N(C)CC3` [Hernandezine], for which the remaining activity at 1.25 µM in test [1] (Well no.=3151) was 100%. Further, the remaining activity at 3.75 µM in test [2] (Well no.=3151) came out at 101%.
Consider `N#Cc1ccc([C@H]2CCc3cncn32)c(F)c1` [LCI699], for which the remaining activity at 1.25 µM in test [1] (Well no.=8526) stood at 98.2%. The remaining activity at 3.75 µM in test [2] (Well no.=8526) came to 98.2%.
Consider `OCCN1C[C@H](O)[C@@H](O)[C@H](O)[C@H]1CO` [Miglitol], for which the remaining activity at 1.25 µM in test [1] (Well no.=8340) turned out to be 92.9%. Also, the remaining activity at 3.75 µM in test [2] (Well no.=8340) worked out at 92.7%.
As to `CNC1C(O)C(NC)C2OC3(O)C(=O)CC(C)OC3OC2C1O` (stereo not shown) [Spectinomycin.2HCl], the remaining activity at 1.25 µM in test [1] (Well no.=1587) turned out to be 101%. Also, the remaining activity at 3.75 µM in test [2] (Well no.=1587) was 101%.
Regarding `Nc1nc2[nH]cc(CCc3ccc(C(=O)N[C@@H](CCC(=O)O)C(=O)O)cc3)c2c(=O)[nH]1` [Pemetrexed], the remaining activity at 1.25 µM in test [1] (Well no.=8316) was 103%. Moreover, the remaining activity at 3.75 µM in test [2] (Well no.=8316) came to 101%.
Regarding `CC(C)c1cc(C(=O)N2Cc3ccc(CN4CCN(C)CC4)cc3C2)c(O)cc1O` [AT13387], the remaining activity at 1.25 µM in test [1] (Well no.=5061) was 95%. In test [2] (Well no.=5061), the remaining activity at 3.75 µM was 99.9%.
Consider `COc1cc2c(cc1-c1c(C)noc1C)ncc1[nH]c(=O)n([C@H](C)c3ccccn3)c12` [7-(3,5-dimethyl-4-isoxazolyl)-8-methoxy-1-[(1R)-1-(2-pyridinyl)ethyl]-1,3-dihydro-2H-imidazo[4,5-c]quinolin-2-one], for which the remaining activity at 1.25 µM in test [1] (Well no.=5813) was 101%. The remaining activity at 3.75 µM in test [2] (Well no.=5813) came to 102%.
As for `CC(C)CN(C[C@@H](O)[C@H](Cc1ccccc1)NC(=O)O[C@H]1CO[C@H]2OCC[C@H]21)S(=O)(=O)c1ccc(N)cc1` [Darunavir (Ethanolate)], the remaining activity at 1.25 µM in test [1] (Well no.=8504) is 98.9%. Also, the remaining activity at 3.75 µM in test [2] (Well no.=8504) turned out to be 90.4%.
For the molecule `CCCCN1C[C@H](O)[C@@H](O)[C@H](O)[C@H]1CO` [Miglustat], the remaining activity at 1.25 µM in test [1] (Well no.=2252) was 97.5%. Also, in test [2] (Well no.=2252), the remaining activity at 3.75 µM is 95.8%.
With `CCOC(=O)[C@@H](N)Cc1ccc(-c2cc(O[C@H](c3ccc(Cl)cc3-n3ccc(C)n3)C(F)(F)F)nc(N)n2)cc1` [Telotristat Etiprate (LX 1606 Hippurate)], in test [1] (Well no.=8288), the remaining activity at 1.25 µM was determined as 92.6%. The remaining activity at 3.75 µM in test [2] (Well no.=8288) was determined as 92.1%.
Regarding `NC(N)=NCCC[C@H](N)C(=O)NCC(=O)N[C@@H](CC(=O)O)C(=O)N[C@@H](CO)C(=O)O` [Arg-Gly-Asp-Ser], the remaining activity at 1.25 µM in test [1] (Well no.=7938) was 95.5%. Also, the remaining activity at 3.75 µM in test [2] (Well no.=7938) was found to be 95.3%.
Consider `Nc1c(/N=N/c2ccc(-c3ccc(/N=N/c4cc(S(=O)(=O)O)c5ccccc5c4N)cc3)cc2)cc(S(=O)(=O)O)c2ccccc12` [Congo Red], for which the remaining activity at 1.25 µM in test [1] (Well no.=8614) was 101%. Further, in test [2] (Well no.=8614), the remaining activity at 3.75 µM came to 104%.
Turning to `O=c1cc(-c2ccccc2)oc2cc(O)c(O)c(O)c12` [Baicalein], the remaining activity at 1.25 µM amounted to 103% in test [1] (Well no.=3087) and 108% in test [1] (Well no.=3942). Also, the figures for the remaining activity at 3.75 µM in test [2] (Well no.=3087) and in test [2] (Well no.=3942) were 101% and 104%, respectively.
As to `CC(C)[C@H](CO)Nc1nc(Nc2cc(N)cc(Cl)c2)c2ncn(C(C)C)c2n1` [Aminopurvalanol A - (2R)-2-[[6-[(3-Amino-5-chlorophenyl)amino]-9-(1-methylethyl)-9H-purin-2-yl]amino]-3-methyl-1-butanol], the remaining activity at 1.25 µM in test [1] (Well no.=2484) was 101%. For the same molecule, the remaining activity at 3.75 µM in test [2] (Well no.=2484) was 108%.
For `Nc1nc2c([nH]c(=O)n2[C@H]2C[C@H](O)[C@@H](CO)O2)c(=O)[nH]1` [8-Hydroxy-2'-deoxyguanosine], the remaining activity at 1.25 µM in test [1] (Well no.=7113) was found to be 105%. Moreover, the remaining activity at 3.75 µM in test [2] (Well no.=7113) is 105%.
In the case of `NC(N)=NC(=O)c1nc(Cl)c(N2CCCCCC2)nc1N` [5-(N,N-hexamethylene)amiloride], the remaining activity at 1.25 µM in test [1] (Well no.=106) came out at 104%. The remaining activity at 3.75 µM in test [2] (Well no.=106) was determined as 104%.
Consider `CN(C)CCCC1(c2ccc(F)cc2)OCc2cc(C#N)ccc21` (stereo not shown) [Citalopram], for which the remaining activity at 1.25 µM in test [1] (Well no.=2265) came out at 97.4%. In test [2] (Well no.=2265), the remaining activity at 3.75 µM stood at 103%.
Turning to `CCCCCCCCCCCCCCCC(=O)NCC(COP(=O)([O-])OCC[N+](C)(C)C)OC` (racemic) [rac-2-Methoxy-3-hexadecanamido-1-propylphosphocholine], the remaining activity at 1.25 µM in test [1] (Well no.=1078) came out at 97.5%. In addition, the remaining activity at 3.75 µM in test [2] (Well no.=1078) is 96.5%.
Turning to `CC(O)C(C)OC(=O)[C@@H]1C[C@@H]2c3cccc4c3c(cn4C(C)C)C[C@H]2N(C)C1` (stereo partly shown) [LY-53,857 maleate], the remaining activity at 1.25 µM in test [1] (Well no.=772) stood at 99.8%. For the same molecule, in test [2] (Well no.=772), the remaining activity at 3.75 µM is 97.2%.
With `C[C@@H](O[C@H]1OCCN(Cc2nn(P(=O)(O)O)c(=O)[nH]2)[C@H]1c1ccc(F)cc1)c1cc(C(F)(F)F)cc(C(F)(F)F)c1` [Fosaprepitant dimeglumine], the remaining activity at 1.25 µM in test [1] (Well no.=5269) was determined as 97.5%. Further, the remaining activity at 3.75 µM in test [2] (Well no.=5269) was determined as 95.4%.
As for `CC1Cc2cc3c(cc2C(c2ccc(N)cc2)=NN1)OCO3` (stereo not shown) [GYKI 52895], the remaining activity at 1.25 µM in test [1] (Well no.=414) was 95.2%. The remaining activity at 3.75 µM in test [2] (Well no.=414) stood at 95.8%.
With `O=C(N[C@H]1CCN(C(=O)c2cc(C(F)(F)F)cc(C(F)(F)F)c2)[C@H](Cc2ccc(Cl)cc2)C1)c1ccnc2ccccc12` [NKP608], in test [1] (Well no.=8427), the remaining activity at 1.25 µM turned out to be 93.4%. Moreover, the remaining activity at 3.75 µM in test [2] (Well no.=8427) came out at 92.6%.
Turning to `CCCCCCOC(=O)NC(=N)c1ccc(NCc2nc3cc(C(=O)N(CCC(=O)OCC)c4ccccn4)ccc3n2C)cc1` [Dabigatran Etexilate], in test [1] (Well no.=8192), the remaining activity at 1.25 µM was found to be 95.6%. Besides, the remaining activity at 3.75 µM in test [2] (Well no.=8192) is 82.3%.
Regarding `COc1cnc(NS(=O)(=O)c2ccc(N)cc2)nc1` [Sulfameter], the remaining activity at 1.25 µM in test [1] (Well no.=7406) was found to be 98.3%; in test [1] (Well no.=8236), 91.9%. Moreover, the remaining activity at 3.75 µM in test [2] (Well no.=7406) was found to be 100%; in test [2] (Well no.=8236) it was 88.3%.
Turning to `Cc1ccc(N(CC2=NCCN2)c2cccc(O)c2)cc1` [Phentolamine], the remaining activity at 1.25 µM in test [1] (Well no.=1635) turned out to be 105%. For the same molecule, in test [2] (Well no.=1635), the remaining activity at 3.75 µM turned out to be 105%.
As to `c1ccc2nc(C3=NCCN3)ccc2c1` [BU224 hydrochloride], in test [1] (Well no.=39), the remaining activity at 1.25 µM was 102%. The remaining activity at 3.75 µM in test [2] (Well no.=39) amounted to 105%.
